# Assay results taken from publication PMC8011197, “A polo-like kinase modulates cytokinesis and flagella biogenesis in Giardia lamblia” (Parasites & Vectors, 2021).
# Assays:
# Format in all cases: cell-based
# [1] = system: Giardia lamblia trophozoites; experiment: Growth inhibition of Giardia trophozoites, hemocytometer count after 24 h; details: Giardia duodenalis, GW 5–15 μM, 2 × 10^4 cells/ml, read-out: IC50, inhibition of growth of G. lamblia
# Description: After treatment for 24 h, the number of parasites per milliliter was determined using a hemocytometer. Giardia trophozoites treated with 0.3% dimethyl sulfoxide (DMSO) were used as controls.
# [2] = system: Giardia lamblia trophozoites; experiment: Nuclear phenotype (number, position, condensation of nuclei) of Giemsa-stained cells; details: for Percentage of cells, 1N / Percentage of cells, 2N, abnormal / Percentage of cells, 2N, normal / Percentage of cells, 3N / Percentage of cells, 4N / Percentage of cells, >4N: 5 µM GW
# Description: For the microscopic observation of cells, the cells were attached to slides, air-dried and fixed with 100% methanol for 10 min, following which they were stained with 10% Giemsa solution for 40 min and washed with distilled water. After mounting with dibutyl phthalate xylene (Sigma-Aldrich, St. Louis, MO, USA), the slides were observed under an Axiovert 200 microscope (Carl Zeiss AG, Oberkochen, Germany). For each condition, at least 300 cells were examined to determine the number and position of the nuclei. Among cells with two nuclei in normal positions, the number of cells showing nuclei condensation was also recorded. Data are presented as the mean ± standard deviation (SD) of three independent experiments. […]
# [3] = system: Giardia lamblia trophozoites; experiment: DNA content / cell cycle phase by flow cytometry (PI)
# Description: Both the GW-treated and control G. lamblia cells were analyzed for their DNA content using flow cytometry. Briefly, the harvested cells were resuspended in 50 μl TYI-S-33 culture medium and treated with 150 μl of a cell fixative (1% Triton X-100, 40 mM citric acid, 20 mM dibasic sodium phosphate, 200 mM sucrose; pH 3.0) at room temperature for 5 min. The samples were diluted with 350 μl of diluent buffer [125 mM MgCl2 in phosphate-buffered saline (PBS: 137 mM NaCl, 2.7 mM KCl, 10.1 mM Na2HPO4 and 2 mM KH2PO4, pH 7.4)] and then stored at 4 °C until use. Fixed cells were treated with 2.5 μg RNase A (Sigma-Aldrich) and 10 μg/ml propidium iodide (PI; Sigma-Aldrich) for 30 min at 37 °C. […] Along representative histograms, averages of three independent experiments were presented in bar graphs.
# Expression of GlPLK was knocked down using a morpholino, as described previously. A specific morpholino for GlPLK was designed by Gene Tools (Philomath, OR, USA) (see Table 1 for sequences). Nonspecific oligomers were used as a control morpholino (Table 1). Cells (5 × 10^6 in 0.3 ml medium) were treated with the lyophilized morpholino at a final concentration of 100 nM. After electroporation, the cells were grown for various lengths of time, ranging from 12 to 48 h, and analyzed for GlPLK inhibition by western blotting using anti-HA and anti-GlPLK antibodies. The cells at 18 h post-transfection were analyzed for their nuclear phenotypes, including the number and position of nuclei and condensation and flagella length, as described above. In addition, cells transfected with control or anti-glplk morpholino were harvested at 6 or 18 h, and then evaluated with respect to their DNA content by flow cytometry followed by analysis using FlowJo software (FlowJo Llc). […]
# These cells were then analyzed by flow cytometry to determine the ploidy of their DNA. Intracellular levels of GlPLK protein in the DMSO-treated, nocodazole-treated and nocodazole/aphidicolin-treated Giardia cells were determined by western blotting. The intracellular levels of glplk transcripts were also measured in these cells.
# [4] = system: Giardia lamblia trophozoites; experiment: Flagella length of Giemsa-stained cells (DIC images, Fiji/ImageJ); details: 5 µM GW
# Source text: To measure flagella length, we observed Giemsa-stained cells under an Axiovert 200 microscope and analyzed their differential interference contrast (DIC) images using Fiji, an open-source platform for biological-image analysis. Each of four types of flagella were divided into cytoplasmic and membrane-bound categories and then measured using the line Freehand Tracing 0mode in ImageJ software (http://imagej.nih.gov/ij/). […] Data are presented as the mean ± SD of three independent experiments.
# Expression of GlPLK was knocked down using a morpholino, as described previously. A specific morpholino for GlPLK was designed by Gene Tools (Philomath, OR, USA) (see Table 1 for sequences). Nonspecific oligomers were used as a control morpholino (Table 1). Cells (5 × 10^6 in 0.3 ml medium) were treated with the lyophilized morpholino at a final concentration of 100 nM. After electroporation, the cells were grown for various lengths of time, ranging from 12 to 48 h, and analyzed for GlPLK inhibition by western blotting using anti-HA and anti-GlPLK antibodies. The cells at 18 h post-transfection were analyzed for their nuclear phenotypes, including the number and position of nuclei and condensation and flagella length, as described above. In addition, cells transfected with control or anti-glplk morpholino were harvested at 6 or 18 h, and then evaluated with respect to their DNA content by flow cytometry followed by analysis using FlowJo software (FlowJo Llc). Transfection was performed at least five times, and the data presented were derived from three independent knockdown experiments.
smiles,measurement,setting,value
"COc1cc2ncn(-c3cc(OCc4ccccc4C(F)(F)F)c(C(N)=O)s3)c2cc1OC [GW, GW843682X]",IC50,[1],7 µM
same,"Percentage of cells, 1N",[2]; 3 h,0.4±0.1%
same,"Percentage of cells, 2N, abnormal",[2]; 3 h,0.7±0.3%
same,"Percentage of cells, 2N, normal",[2]; 3 h,97.2±0.8%
same,"Percentage of cells, 3N",[2]; 3 h,0.2±0.1%
same,"Percentage of cells, 4N",[2]; 3 h,0.7±0.2%
same,"Percentage of cells, >4N",[2]; 3 h,0.8±0.3%
same,"Percentage of cells, 1N",[2]; 6 h,0.3±0.2%
same,"Percentage of cells, 2N, abnormal",[2]; 6 h,0.8±0.3%
same,"Percentage of cells, 2N, normal",[2]; 6 h,96.9±0.7%
same,"Percentage of cells, 3N",[2]; 6 h,0.3±0.1%
same,"Percentage of cells, 4N",[2]; 6 h,0.8±0.2%
same,"Percentage of cells, >4N",[2]; 6 h,0.9±0.4%
same,Percentage of cells with condensed nuclei,"[2]; 5 μM GW, 6 h, compared to DMSO-treated cells",significantly increased
same,"Percentage of cells, 1N",[2]; 9 h,1.2±0.1%
same,"Percentage of cells, 2N, abnormal",[2]; 9 h,1.3±0.3%
same,"Percentage of cells, 2N, normal",[2]; 9 h,91.7±0.1%
same,"Percentage of cells, 3N",[2]; 9 h,1.3±0.4%
same,"Percentage of cells, 4N",[2]; 9 h,3.3±0.4%
same,"Percentage of cells, >4N",[2]; 9 h,1.7±0.3%
same,"Percentage of cells, 1N",[2]; 12 h,1.2±0.1%
same,"Percentage of cells, 2N, abnormal",[2]; 12 h,1.4±0.6%
same,"Percentage of cells, 2N, normal",[2]; 12 h,91.0±1.4%
same,"Percentage of cells, 3N",[2]; 12 h,1.5±0.4%
same,"Percentage of cells, 4N",[2]; 12 h,3.1±0.9%
same,"Percentage of cells, >4N",[2]; 12 h,1.9±0.8%
same,"Percentage of cells, 1N",[2]; 15 h,1.1±0.2%
same,"Percentage of cells, 2N, abnormal",[2]; 15 h,1.6±0.5%
same,"Percentage of cells, 2N, normal",[2]; 15 h,86.1±1.4%
same,"Percentage of cells, 3N",[2]; 15 h,1.5±0.3%
same,"Percentage of cells, 4N",[2]; 15 h,6.7±0.5%
same,"Percentage of cells, >4N",[2]; 15 h,3.1±0.6%
same,"Percentage of cells, 1N",[2]; 18 h,0.9±0.3%
same,"Percentage of cells, 2N, abnormal",[2]; 18 h,0.9±0.4%
same,"Percentage of cells, 2N, normal",[2]; 18 h,88.5±1.2%
same,"Percentage of cells, 3N",[2]; 18 h,1.6±0.4%
same,"Percentage of cells, 4N",[2]; 18 h,5.4±0.8%
same,"Percentage of cells, >4N",[2]; 18 h,2.7±0.5%
same,"Percentage of cells, 1N",[2]; 24 h,1.2±0.3%
same,"Percentage of cells, 2N, abnormal",[2]; 24 h,1.6±0.5%
same,"Percentage of cells, 2N, normal",[2]; 24 h,85.6±0.5%
same,"Percentage of cells, 3N",[2]; 24 h,2.3±0.2%
same,"Percentage of cells, 4N",[2]; 24 h,6.1±0.5%
same,"Percentage of cells, >4N",[2]; 24 h,3.2±0.4%
same,Percentage of cells at G2/M phase,"[3]; 5 μM GW, 6 and 12 h, control 72–73%",86%
same,"Length of cytoplasmic part of posterolateral, anterior and caudal flagella",[4],None of the three flagella showed any significant change
same,Length of membrane-bound portion of posterolateral and ventral flagella,[4]; 18 h,did not induce a significant increase
same,Length of membrane-bound part of caudal flagella,"[4]; 18 h, DMSO 7.2 μm",11.1 µm
same,Length of membrane-bound part of anterior flagella,"[4]; 18 h, DMSO 9.0 μm",11.3 µm
COC(=O)Nc1nc2ccc(C(=O)c3cccs3)cc2[nH]1 [nocodazole],Percentage of G2/M-phase cells after synchronization,"[3]; 100 nM nocodazole, Giardia carrying pGlPLK.neo, 0.01% DMSO control 78%",91%
C[C@@]1(CO)[C@H](O)CC[C@@]2(C)[C@H]1CC[C@H]1C[C@@H]3C[C@@]12CC[C@]3(O)CO [aphidicolin],Percentage of G1/S-arrested cells after synchronization,"[3]; sequentially 100 nM nocodazole, then 6 μM aphidicolin 6 h, Giardia carrying pGlPLK.neo",86%
